Assay results as given in patent US20260234180A1, “AMINO ACID DERIVATIVE, PREPARATION METHOD THEREFOR, AND PHARMACEUTICAL COMPOSITION FOR TREATING HEPATITIS, COMPRISING SAME” (priority 2021, published 2026).

Target: T1, NTCP (Na+ taurocholate cotransporting peptide), HepG2-hNTCP-C4 cell line (Homo sapiens, UniProt Q14973)
T1 construct: expressed in transfected cells; host or cells: HepG2-hNTCP-C4 (HepG2 cells expressing human NTCP)
T1 sequence (Q14973 1-349): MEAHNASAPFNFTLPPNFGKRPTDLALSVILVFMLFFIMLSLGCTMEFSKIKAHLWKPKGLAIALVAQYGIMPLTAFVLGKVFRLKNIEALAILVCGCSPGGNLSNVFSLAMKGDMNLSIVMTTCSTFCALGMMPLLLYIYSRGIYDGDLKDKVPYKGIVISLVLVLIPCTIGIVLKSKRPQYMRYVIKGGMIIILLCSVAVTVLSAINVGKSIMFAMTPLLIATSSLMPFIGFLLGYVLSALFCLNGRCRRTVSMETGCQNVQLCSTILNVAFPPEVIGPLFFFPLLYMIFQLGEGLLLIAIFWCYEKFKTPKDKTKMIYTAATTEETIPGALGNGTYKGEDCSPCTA
Experiment: Inhibition of binding between FITC-labelled PreS1 and NTCP expressing cell line, flow cytometry
Conditions: for effect of inhibiting the binding between PreS1 and NTCP expressing cell lines by treatment concentration: 0.2 μM, 2 μM, 10 μM, 50 μM; for effect of inhibiting the binding between PreS1 and NTCP expressing cell lines by treatment concentration / ability to inhibit the binding between PreS1 and NTCP expressing cell lines (bile acid series): 20 nM PreS1; for ability to inhibit the binding between PreS1 and NTCP expressing cell lines (bile acid series) / relative fluorescence intensity compared to Comparative Example 1 (LCA): compound 50 µM; for relative fluorescence intensity compared to Comparative Example 1 (LCA): 20 nM PreS1, 4° C., 2 hours, lower = more inhibited binding
Outline: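 HepG2-hNTCP-C4 cells were pre-chilled at 4 °C for 30 min, then exposed to 20 nM Myr-PreS1-Lys(FITC) plus compound at 4 °C for 2 h, mostly at 50 μM, with some series at 0.2–50 μM or 2–50 μM. After washes and EDTA detachment, cell-bound green fluorescence was read by flow cytometry.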

SMILES | effect of inhibiting the binding between PreS1 and NTCP expressing cell lines by treatment concentration | ability to inhibit the binding between PreS1 and NTCP expressing cell lines (bile acid series) | relative fluorescence intensity compared to Comparative Example 1 (LCA)
CC[C@@H](C)[C@H](NC(=O)CC[C@@H](C)[C@H]1CC[C@H]2[C@@H]3CC[C@@H]4C[C@H](O)CC[C@]4(C)[C@H]3CC[C@]12C)C(=O)O [Example 1, (2S,3R)-2-((R)-4-((3R,5R,8R,9S,10S,13R,14S,17R)-3-hydroxy-10,13-dimethyl-hexadecahydro-1H-cyclopenta[a]phenanthren-17-yl)pentanamido)-3-methylpentanoic acid] | concentration dependent | relatively excellent | low and lower
CC[C@@H](C)[C@H](NC(=O)CC[C@@H](C)[C@H]1CC[C@H]2[C@@H]3[C@@H](O)C[C@@H]4C[C@H](O)CC[C@]4(C)[C@H]3CC[C@]12C)C(=O)O [Example 2, (2S,3R)-2-((R)-4-((3R,5S,7S,8R,9S,10S,13R,14S,17R)-3,7-dihydroxy-10,13-dimethyl-hexadecahydro-1H-cyclopenta[a]phenanthren-17-yl)pentanamido)-3-methylpentanoic acid] | – | relatively excellent | –
CC(C)[C@H](NC(=O)CC[C@@H](C)[C@H]1CC[C@H]2[C@@H]3[C@@H](O)C[C@@H]4C[C@H](O)CC[C@]4(C)[C@H]3CC[C@]12C)C(=O)O [Example 3, (S)-2-((R)-4-((3R,5S,7S,8R,9S,10S,13R,14S,17R)-3,7-dihydroxy-10,13-dimethyl-hexadecahydro-1H-cyclopenta[a]phenanthren-17-yl)pentanamido)-3-methylbutanoic acid] | – | relatively excellent | –
CC[C@@H](C)[C@H](NC(=O)CC[C@@H](C)[C@H]1CC[C@H]2[C@@H]3CC[C@@H]4C[C@H](O)CC[C@]4(C)[C@H]3C[C@H](O)[C@]12C)C(=O)O [Example 10, (2S,3R)-2-((R)-4-((3R,5R,8R,9S,10S,12S,13R,14S,17R)-3,12-dihydroxy-10,13-dimethyl-hexadecahydro-1H-cyclopenta[a]phenanthren-17-yl)pentanamido)-3-methylpentanoic acid] | – | relatively excellent | –
CC(C)[C@H](NC(=O)CC[C@@H](C)[C@H]1CC[C@H]2[C@@H]3CC[C@@H]4C[C@H](O)CC[C@]4(C)[C@H]3CC[C@]12C)C(=O)O [Example 44, (S)-2-((R)-4-((3R,5R,8R,9S,10S,13R,14S,17R)-3-hydroxy-10,13-dimethyl-hexadecahydro-1H-cyclopenta[a]phenanthren-17-yl)pentanamido)-3-methylbutanoic acid] | concentration dependent | relatively excellent | low and lower
